Assay results from patent US20250179017A1 (GUANGDONG NEWOPP BIOPHARMACEUTICALS CO., LTD., priority 2022, published 2025).

Experiments:
human EP2 (PTGER2) = molecular target: T1, human EP2 (PTGER2) (Homo sapiens, UniProt P43116); test: EP2 antagonist assay (HEK-293 CNG membrane potential cAMP assay / 293T SEAP reporter assay, PGE2-stimulated); assay type: cell-based; settings: EP2 antagonist activity; concentration for 50% inhibition of signal compared to DMSO
T1 construct: Cayman Chemical (Human EP2 Reporter Assay Kit)
T1 sequence (P43116 whole entry): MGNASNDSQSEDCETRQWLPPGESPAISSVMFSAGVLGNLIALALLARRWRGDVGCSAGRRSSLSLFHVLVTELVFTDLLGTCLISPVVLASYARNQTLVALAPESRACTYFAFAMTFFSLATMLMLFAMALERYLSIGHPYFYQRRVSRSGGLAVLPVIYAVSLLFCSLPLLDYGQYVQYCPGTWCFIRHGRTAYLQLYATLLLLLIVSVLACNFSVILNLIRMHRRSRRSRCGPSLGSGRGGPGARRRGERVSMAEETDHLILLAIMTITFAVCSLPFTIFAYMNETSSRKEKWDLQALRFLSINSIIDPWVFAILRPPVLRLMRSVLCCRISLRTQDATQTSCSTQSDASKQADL
In short: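 HEK-293 CNG cells expressing human EP2: compound preincubated 15 min at RT, then PGE2 at 5 nM final, 30 min; membrane-potential dye fluorescence (ex 530, em 590 nm), background-subtracted, gave IC50. Alternatively, 293T cells reverse-transfected with EP2 and CRE-SEAP, compound plus 13 nM PGE2 for 6-8 h, SEAP luminescence.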

human EP4 (EP4R) = molecular target: T2, human EP4 (EP4R) (Homo sapiens, UniProt P35408); test: EP4 antagonist assay (HEK-293 CNG membrane potential cAMP assay / 293T SEAP reporter assay, PGE2-stimulated); assay type: cell-based; settings: EP4 antagonist activity; concentration for inhibition of signal compared to DMSO
T2 construct: Cayman Chemical (Human EP4 Reporter Assay Kit)
T2 sequence (P35408 whole entry): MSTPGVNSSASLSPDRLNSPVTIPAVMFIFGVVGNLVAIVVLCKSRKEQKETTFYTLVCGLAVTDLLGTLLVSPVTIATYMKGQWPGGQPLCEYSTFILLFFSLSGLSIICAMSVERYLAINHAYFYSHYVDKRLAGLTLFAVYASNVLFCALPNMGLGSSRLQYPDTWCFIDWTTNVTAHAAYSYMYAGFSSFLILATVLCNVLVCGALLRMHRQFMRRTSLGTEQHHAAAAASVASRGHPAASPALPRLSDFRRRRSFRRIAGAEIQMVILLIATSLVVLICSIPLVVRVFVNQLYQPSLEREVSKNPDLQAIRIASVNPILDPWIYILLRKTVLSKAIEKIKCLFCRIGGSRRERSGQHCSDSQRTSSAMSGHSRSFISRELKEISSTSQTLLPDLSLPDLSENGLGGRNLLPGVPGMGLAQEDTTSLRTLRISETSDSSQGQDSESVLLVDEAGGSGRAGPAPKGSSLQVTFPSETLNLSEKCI
Text: 1. The HEK-293 CNG (Cyclic Nucleotide Gated) cell line expressing a modified CNG channel that leads to cell membrane depolarization in response to elevated intracellular cAMP levels, which can be measured using a fluorescent membrane potential dye, was engineered to express human EP2 (PTGER2) or EP4 (EP4R). The resulting cell line ACTOne™ PTGER2 or ACTOne™ EP4R as well as the fluorescent membrane potential dye were purchased from eEnzyme (Gaithersburg, MD, US) and used in this assay. Briefly, cells were plated at 1.2×10^4 cells/well in 20 μL DMEM supplemented with 2% Fetal Bovine Serum (FBS, VWR International), 1x Penicillin/Streptomycin (GenClone), 0.2 μg/mL puromycin (InvivoGen) and 50 μg/mL G418 (InvivoGen) on a 384 well plate (Greiner). The next day, cells were dye-loaded with 20 μL/well of 1x Dye-loading solution (eENZYME) following the manufacturer's instruction. After 2 hours of incubation at room temperature (RT) in the dark, a pre-read was made to obtain the background signals using CLARIOstar plate reader (BMG LABTECH, Germany) with the following filter settings: excitation=530/20 nm, emission=590/20 nm. Next, a serial dilution of compound (plus a DMSO control) were added to the plate (5 μL/well) and the reaction was incubated at RT for 15 min before adding 5 μL of PGE2 to every well for a final concentration of 5 nM. All wells were duplicated. The plate was then further incubated at RT for 30 min prior to a final read with the same machine settings. Background-subtracted signals were used to calculate IC50 values.
2. Human EP2 and EP4 Reporter Assay Kits were purchased from Cayman Chemical (Ann Arbor, MI, USA). The assay was performed following the provided User Manual. Briefly, a reverse transfection was performed by seeding 6.0×10^4 of 293T cells (ATCC) to each well of the provided Strip Plate coated with a proprietary transfection complex containing DNA constructs for expressing human EP2 or EP4 and a cAMP response element regulated secreted alkaline phosphatase (SEAP) reporter, in 200 μL DMEM supplemented with 2% FBS and incubated for 20-24 hours at 37° C. with 5% CO2. After the incubation, the culture medium was carefully removed, and the cells were replenished with 150 μL pre-warmed serum-free medium. PGE2 and test compounds were prepared together at 4x the desired final concentration, and 50 μL was added to each assigned well with the final concentration of 13 nM and 2 nM PGE2 for EP2 and EP4 assay, respectively. After 6-8 hours of incubation, 10 μL media from each well was transferred to corresponding well of a new plate, which was then sealed and incubated at 65° C. for 30 min. The plate was then cooled down to RT and 50 μL SEAP substrate was added to each well. Luminescence signal was measured using a CLARIOstar plate reader.
The IC50 value was determined as the concentration for […] inhibition of signal compared to DMSO (A: IC50≤100 nM; B: IC50 between 100 nM and 1,000 nM; C: IC50≥1,000 nM).

Row | IC50 (human EP2 (PTGER2)) [nM] | IC50 (human EP4 (EP4R)) [nM] | Structure (SMILES)
1 | < 100 | ≤ 100 | O=C(O)c1ccc(CNC(=O)c2cc(-c3ccccc3)cc3cnn(Cc4ccc(-c5ccccc5)cc4)c23)cc1 [Example 190, 4-((1-([1,1′-biphenyl]-4-ylmethyl)-5-phenyl-1H-indazole-7-carboxamido)methyl)benzoic acid]
2 | < 100 | ≤ 100 | O=C(O)c1ccc(CNC(=O)c2cc(-c3ccccc3)cc3ccn(Cc4ccc(-c5ccccc5)cc4)c23)cc1 [Example 147, 4-((1-([1,1′-biphenyl]-4-ylmethyl)-5-phenyl-1H-indole-7-carboxamido)methyl)benzoic acid]
3 | < 100 | ≤ 100 | O=C(O)c1ccc(CNC(=O)c2cc(-c3ccc(F)cc3)cc3ccn(Cc4cccc(Cl)c4)c23)cc1 [Example 107, 4-((1-(3-chlorobenzyl)-5-(4-fluorophenyl)-1H-indole-7-carboxamido)methyl)benzoic acid]
4 | < 100 | ≤ 100 | C[C@H](NC(=O)c1cc(-c2ccccc2)cc2cnn(Cc3cccc(C(F)(F)F)c3)c12)c1ccc(C(=O)O)cc1 [Example 135, (S)-4-(1-(5-phenyl-1-(3-(trifluoromethyl)benzyl)-1H-indazole-7-carboxamido)ethyl)benzoic acid]
5 | < 100 | ≤ 100 | C[C@@H](NC(=O)c1cc(-c2ccccc2)cc2cnn(Cc3cccc(C(F)(F)F)c3)c12)[C@H]1CC[C@H](C(=O)O)CC1 [Example 224, (1R,4r)-4-((R)-1-(5-phenyl-1-(3-(trifluoromethyl)benzyl)-1H-indazole-7-carboxamido)ethyl)cyclohexane-1-carboxylic acid]
6 | < 100 | ≤ 100 | N#Cc1cccc(-c2cc(C(=O)NCc3ccc(C(=O)O)cc3)c3c(Sc4ccc(C(F)(F)F)cc4)c[nH]c3c2)c1 [Example 117, 4-((6-(3-cyanophenyl)-3-((4-(trifluoromethyl)phenyl)thio)-1H-indole-4-carboxamido)methyl)benzoic acid]
7 | < 100 | ≤ 100 | C[C@H](NC(=O)c1cc(-c2cc(F)cc(F)c2)cc2ccn(Cc3ccc(-c4ccccc4)cc3)c12)c1ccc(C(=O)O)cc1 [Example 152, (S)-4-(1-(1-([1,1′-biphenyl]-4-ylmethyl)-5-(3,5-difluorophenyl)-1H-indole-7-carboxamido)ethyl)benzoic acid]
8 | < 100 | ≤ 100 | O=C(O)c1ccc(CNC(=O)c2cc(-c3cc(F)cc(F)c3)cc3ccn(Cc4ccc(C(F)(F)F)cc4)c23)cc1 [Example 9, 4-((5-(3,5-difluorophenyl)-1-(4-(trifluoromethyl)benzyl)-1H-indole-7-carboxamido)methyl)benzoic acid]
9 | < 100 | ≤ 100 | C[C@H](NC(=O)c1cc(-c2cccc(C#N)c2)cc2ccn(Cc3ccc(C(F)(F)F)cc3)c12)c1ccc(C(=O)O)cc1 [Example 52, (S)-4-(1-(5-(3-cyanophenyl)-1-(4-(trifluoromethyl)benzyl)-1H-indole-7-carboxamido)ethyl) benzoic acid]
10 | < 100 | ≤ 100 | O=C(O)c1ccc(CNC(=O)c2cc(-c3cc(F)cc(F)c3)cc3nnn(Cc4ccc(C(F)(F)F)cc4)c23)cc1 [Example 176, ((5-(3,5-difluorophenyl)-1-(4-(trifluoromethyl)benzyl)-1H-benzo[d][1,2,3]triazole-7-carboxamido)methyl)benzoic acid]
11 | < 100 | ≤ 100 | C[C@H](NC(=O)c1cc(-c2ccc(F)cc2)cc2nnn(Cc3ccc(C(F)(F)F)cc3)c12)c1ccc(C(=O)O)cc1 [Example 180, (S)-4-(1-(5-(4-fluorophenyl)-1-(4-(trifluoromethyl)benzyl)-1H-benzo[d][1,2,3]triazole-7-carboxamido)ethyl)benzoic acid]
12 | < 100 | ≤ 100 | C[C@H](NC(=O)c1cc(-c2cc(F)cc(F)c2)cc2cnn(Cc3ccc(C(F)(F)F)cc3)c12)c1ccc(C(=O)O)cc1 [Example 101, (S)-4-(1-(5-(3,5-difluorophenyl)-1-(4-(trifluoromethyl)benzyl)-1H-indazole-7-carboxamido)ethyl)benzoic acid]
13 | < 100 | ≤ 100 | O=C(O)c1ccc(CNC(=O)c2cc(-c3ccccc3)cc3cnn(Cc4cccc(C(F)(F)F)c4)c23)cc1 [Example 137, 4-((5-phenyl-1-(3-(trifluoromethyl)benzyl)-1H-indazole-7-carboxamido)methyl)benzoic acid]
14 | < 100 | ≤ 100 | O=C(O)c1ccc(CNC(=O)c2cc(-c3cccnc3)cc3ccn(Cc4ccc(C(F)(F)F)cc4)c23)cc1 [Example 78, 4-((5-(pyridin-3-yl)-1-(4-(trifluoromethyl)benzyl)-1H-indole-7-carboxamido)methyl)benzoic acid]
15 | < 100 | ≤ 100 | C[C@H](NC(=O)c1cc(-c2cc(F)cc(F)c2)cc2cnn(Cc3ccc4ccccc4c3)c12)c1ccc(C(=O)O)cc1 [Example 169, (S)-4-(1-(5-(3,5-difluorophenyl)-1-(naphthalen-2-ylmethyl)-1H-indazole-7-carboxamido)ethyl)benzoic acid]
16 | < 100 | ≤ 100 | O=C(NC[C@H]1CC[C@H](C(=O)O)CC1)c1cc(-c2ccccc2)cc2cnn(Cc3cccc(C(F)(F)F)c3)c12 [Example 221, (1r,4r)-4-((5-phenyl-1-(3-(trifluoromethyl)benzyl)-1H-indazole-7-carboxamido)methyl)cyclohexane-1-carboxylic acid]
17 | < 100 | ≤ 100 | C[C@H](NC(=O)c1cc(-c2ccccc2)cc2cnn(Cc3ccc(C(F)(F)F)cc3)c12)c1ccc(C(=O)O)cc1 [Example 100, (S)-4-(1-(5-phenyl-1-(4-(trifluoromethyl)benzyl)-1H-indazole-7-carboxamido)ethyl)benzoic acid]
18 | < 100 | ≤ 100 | C[C@H](NC(=O)c1cc(-c2ccc(F)cc2)cc2ccn(Cc3ccc(-c4ccccc4)cc3)c12)c1ccc(C(=O)O)cc1 [Example 151, (S)-4-(1-(1-([1,1′-biphenyl]-4-ylmethyl)-5-(4-fluorophenyl)-1H-indole-7-carboxamido)ethyl)benzoic acid]
19 | 100 to 1000 | ≤ 100 | CC(C)(O)c1cccc(-c2cc(C(=O)NCc3ccc(C(=O)O)cc3)c3c(ccn3Cc3ccc(C(F)(F)F)cc3)c2)c1 [Example 85, 4-((5-(3-(2-hydroxypropan-2-yl)phenyl)-1-(4-(trifluoromethyl)benzyl)-1H-indole-7-carboxamido)methyl)benzoic acid]
20 | < 100 | ≤ 100 | O=C(O)c1ccc(CNC(=O)c2cc(-c3ccccc3F)cc3ccn(Cc4ccc(C(F)(F)F)cc4)c23)cc1 [Example 87, 4-((5-(2-fluorophenyl)-1-(4-(trifluoromethyl)benzyl)-1H-indole-7-carboxamido)methyl)benzoic acid]
21 | < 100 | ≤ 100 | O=C(O)c1ccc(C2(NC(=O)c3ccc(Nc4ccccc4)c4ccn(Cc5ccc(C(F)(F)F)cc5)c34)CC2)cc1 [Example 44, 4-(1-(4-(phenylamino)-1-(4-(trifluoromethyl)benzyl)-1H-indole-7-carboxamido)cyclopropyl)benzoic acid]
22 | < 100 | ≤ 100 | O=C(O)c1ccc(CNC(=O)c2cc(-c3ccccc3)cc3cnn(Cc4ccc5ccccc5c4)c23)cc1 [Example 165, 4-((1-(naphthalen-2-ylmethyl)-5-phenyl-1H-indazole-7-carboxamido)methyl)benzoic acid]
23 | < 100 | ≤ 100 | O=C(O)c1ccc(CNC(=O)c2cc(-c3cc(F)cc(F)c3)cc3ccn(Cc4ccc(-c5ccccc5)cc4)c23)cc1 [Example 149, 4-((1-([1,1′-biphenyl]-4-ylmethyl)-5-(3,5-difluorophenyl)-1H-indole-7-carboxamido)methyl)benzoic acid]
